Measurements reported in ChEMBL document CHEMBL2046389, “Contribution of indazolinone tautomers to kinase activity” (Bioorg Med Chem Lett, 2012).

molecular target: Vascular endothelial growth factor receptor 2 (Homo sapiens, UniProt P35968); assay: Inhibition of KDR in presence of 1 mM ATP
Sequence (P35968 whole entry): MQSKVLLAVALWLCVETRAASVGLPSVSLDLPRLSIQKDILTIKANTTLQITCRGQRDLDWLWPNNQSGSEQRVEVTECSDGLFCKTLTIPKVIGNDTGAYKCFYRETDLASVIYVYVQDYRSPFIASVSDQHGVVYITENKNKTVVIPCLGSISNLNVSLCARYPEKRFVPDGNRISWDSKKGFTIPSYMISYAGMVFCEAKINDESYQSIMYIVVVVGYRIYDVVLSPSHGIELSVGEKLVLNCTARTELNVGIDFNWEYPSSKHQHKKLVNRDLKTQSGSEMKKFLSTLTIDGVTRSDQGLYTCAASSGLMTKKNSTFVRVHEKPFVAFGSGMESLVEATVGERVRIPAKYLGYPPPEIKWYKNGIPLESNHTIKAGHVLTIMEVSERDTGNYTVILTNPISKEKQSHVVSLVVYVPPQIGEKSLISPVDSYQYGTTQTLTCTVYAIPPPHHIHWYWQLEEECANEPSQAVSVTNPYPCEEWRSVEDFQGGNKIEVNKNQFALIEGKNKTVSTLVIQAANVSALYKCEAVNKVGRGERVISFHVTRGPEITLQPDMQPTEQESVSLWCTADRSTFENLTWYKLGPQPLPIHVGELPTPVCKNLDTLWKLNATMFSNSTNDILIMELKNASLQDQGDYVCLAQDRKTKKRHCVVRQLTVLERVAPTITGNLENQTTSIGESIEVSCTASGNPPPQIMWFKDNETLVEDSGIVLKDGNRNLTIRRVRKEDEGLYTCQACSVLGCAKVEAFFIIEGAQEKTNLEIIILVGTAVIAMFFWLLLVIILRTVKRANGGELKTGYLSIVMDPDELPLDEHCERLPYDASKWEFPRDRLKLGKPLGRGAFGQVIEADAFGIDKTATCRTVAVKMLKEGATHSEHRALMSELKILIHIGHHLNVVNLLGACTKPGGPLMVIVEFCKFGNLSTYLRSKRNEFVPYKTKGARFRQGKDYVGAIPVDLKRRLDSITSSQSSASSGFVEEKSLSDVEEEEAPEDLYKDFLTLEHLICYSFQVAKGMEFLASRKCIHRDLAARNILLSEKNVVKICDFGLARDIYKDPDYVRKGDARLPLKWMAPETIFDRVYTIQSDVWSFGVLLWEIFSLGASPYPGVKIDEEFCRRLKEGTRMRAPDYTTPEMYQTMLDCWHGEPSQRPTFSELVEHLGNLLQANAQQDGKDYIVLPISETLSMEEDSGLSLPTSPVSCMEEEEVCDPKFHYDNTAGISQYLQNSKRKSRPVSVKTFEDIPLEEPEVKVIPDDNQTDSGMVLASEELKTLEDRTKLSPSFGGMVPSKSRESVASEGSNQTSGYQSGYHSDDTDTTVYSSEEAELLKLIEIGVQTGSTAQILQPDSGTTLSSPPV

IC50 [µM] | SMILES
> 1000 | Cc1cccc(NC(=O)Nc2ccc(-c3cccc4c3C(=O)NC4)cc2)c1
> 1000 | Cc1cccc(NC(=O)Nc2ccc(-c3cccc4c(N)n[nH]c34)cc2)c1
0.04 | O=C(Nc1ccc(-c2cccc3c(=O)[nH][nH]c23)cc1)Nc1cccc(C(F)(F)F)c1
0.01 | O=C(Nc1ccc(-c2cccc3[nH][nH]c(=O)c23)cc1)Nc1cccc(C(F)(F)F)c1
